Source: US7820689B2, “Methods and compositions for preventing or treating cardiovascular disease” (priority 2006, dated 2010)
Where two headings read alike, the source gives them in different places.

How the values were obtained:
C57BL/6 mice = experiment: Carotid artery ligation vascular remodeling model, morphometry; assay type: in vivo; details: for neointima/media (N/M) ratio: 28 days after surgery, controls 1.4±0.6; for lumen area / neointima area: 28 days; for lumen area: PBS 12859±7258; for neointima area: PBS 33623±9377
Source text: Adult C57BL/6 mice (8-12 weeks) were anesthetized by intraperitoneal injection of sodium pentobarbital. The left common carotid artery was isolated and ligated completely with a 6-0 silk suture near the carotid bifurcation. […] After completing the treatment the animals were sacrificed and the segment of the left common carotid artery just proximal to the ligation was excised, fixed in 4% paraformaldehyde, and embedded in paraffin. Five transverse sections per animal were cut at 100 μm intervals and stained with hematoxylin-eosin. The borders of the internal lumen, internal elastic lamina (IEL), and external elastic lamina (EEL) were traced on a digitizing board using Meta Imaging Series 5.0 software ([…].). The luminal, IEL, and EEL areas were measured. The neointima area was calculated by subtracting the luminal area from the IEL area, and the media area was calculated by subtracting the IEL area from the EEL area. The total vascular area was represented by EEL area. The ratio of neointima to media area (N/M ratio) was calculated. Average values were obtained from morphometric analysis of each section of the animal.
Data were given as mean±SD. The Mann-Whitney U test was used to compare continuous variables between the two groups. […] All statistical analyses were performed using SPSS 12.0 (SPSS Inc. Chicago, Ill., USA). The statistical significance level was set at P<0.05, two-tailed.

THP-1 cells = experiment: MTT cell viability assay; assay type: cell-based, human; details: with or without LPS
Method: Cell viability was determined with the 3 (4,5-dimethylthiazol-2-yl) 2,5-diphenyltetrazolium bromide (MTT) assay in each treatment group described above. Briefly, fresh medium was added to cells together with 10% MTT (5 mg/mL). Each plate was maintained at 37° C. for 2 hours and subsequently formazan crystals were dissolved in DMSO. Absorbance was read at a wavelength of 550 nm using a SPECTRAmax PLUS^384 spectrophotometer (Molecular Devices, CA, USA).

[1] = system: superoxide production in THP-1 cell culture; experiment: LPS-induced macrophage superoxide production, lucigenin-enhanced chemiluminescence; assay type: cell-based, human
Method: THP-1 cells were grown in the RPMI-1640 medium containing 10% fetal bovine serum at 37° C. in 5% CO2. The cells were differentiated to macrophages after treatment of the culture with 100 nM PMA for 24 hours. The cell suspension (5×10^5) was added in 0.5 mL into each well of the tissue culture plates. […] LPS was dissolved in sterile water and stored at −70° C. in aliquots. LDL was isolated from human endotoxin-free heparin plasma and was oxidized using CuSO4. In brief, LDL (1 mL, 1 mg/mL) was dialyzed in 500 mL phosphate-buffered saline (PBS, pH 7.4) overnight. Copper sulfate was added to a final concentration of 5 μM, and the LDL was allowed to oxidize at room temperature for 24 hours.
(§1) The supernatants were harvested and the TNF-α, IL-6, and MCP-1 levels were determined by ELISA. Superoxide production in the THP-1 cell culture was measured by lucigenin-enhanced chemiluminescence as described previously (Khadour F H, Panas D, Ferdinandy P, et al. Am J Physiol Heart Circ Physiol, 28:H1108-15 2002). LPS-treated THP-1 cells were treated with PBS containing 1.25 mM lucigenin, and counts were obtained for a 10-minute period in a luminometer (Berthold Technologies, Germany) as relative light units (RLU) emitted. Background counts determined in cell-free preparations were subtracted. Superoxide levels were reported as RLU per 10 minutes and were normalized to the volume (mL) of cell suspension added (i.e., RUL/10 min/mL).
We used lucigenin-enhanced chemiluminescence to assess the DM effect on macrophage superoxide production after stimulation.

microglia = details: cited from earlier work
apoE-deficient mice = assay type: in vivo
Method: (§2) ApoE-deficient mice were fed with a high cholesterol diet containing 21% fat and 0.15% cholesterol (PMI LabDiet 40097, Richmond, Ind., USA) from 8-17 weeks of age. […] After completing the treatment, blood samples were collected by direct heart puncture when sacrificing the animals. The serum levels of total cholesterol, LDL, HDL, and triglyceride were measured by enzymatic methods using an automatic analyzer (Model 747, Hitachi Ltd. Co., Tokyo, Japan). The aorta was dissected from the aortic valve to the iliac bifurcation. To identify lipid-rich atherosclerotic lesions, the aorta was rinsed in 50% isopropanol for 2 minutes, incubated in 0.67% Oil-Red-O for 15 minutes, and washed by 10% isopropanol for 2 minutes. Using a dissection microscope, the area of each atherosclerotic lesion was measured with Image Pro Plus software (Version 3.0.1; Media Cybernetics, Inc, Silver Spring, Md., USA) and expressed as percentage of atherosclerotic area/total area of the aorta.

[2] = Serum lipid levels in apoE-deficient mice on high cholesterol diet; assay type: in vivo
Method: as §2

[3] = system: IL-6 release from THP-1 cells after LPS stimulation; experiment: LPS-induced IL-6 release in THP-1 macrophage culture (ELISA); assay type: cell-based, human
Method: (§3) THP-1 cells were grown in the RPMI-1640 medium containing 10% fetal bovine serum at 37° C. in 5% CO2. The cells were differentiated to macrophages after treatment of the culture with 100 nM PMA for 24 hours. The cell suspension (5×10^5) was added in 0.5 mL into each well of the tissue culture plates. For each experiment, naloxone was prepared immediately before use. LPS was dissolved in sterile water and stored at −70° C. in aliquots. LDL was isolated from human endotoxin-free heparin plasma and was oxidized using CuSO4. In brief, LDL (1 mL, 1 mg/mL) was dialyzed in 500 mL phosphate-buffered saline (PBS, pH 7.4) overnight. Copper sulfate was added to a final concentration of 5 μM, and the LDL was allowed to oxidize at room temperature for 24 hours.
as §1

[4] = system: IL-6 release from THP-1 cells after oxLDL stimulation; experiment: oxLDL-induced IL-6 release in THP-1 macrophage culture (ELISA); assay type: cell-based, human
Method: as §3, §1

With `COc1ccc2c(c1)[C@]13CCCC[C@@H]1[C@H](C2)N(C)CC3` [DM, (+)-3-methoxy-17-methyl-9α,13α,14α-morphinan] the “neointima/media (N/M) ratio” value (C57BL/6 mice; DM 5 mg/kg/day 4 weeks, P=NS) was 1.1±0.7, the “neointima/media (N/M) ratio” value (C57BL/6 mice; DM 10 mg/kg/day 4 weeks) was 0.7±0.3 and the “neointima/media (N/M) ratio” value (C57BL/6 mice; DM 20 mg/kg/day 4 weeks) was 0.4±0.2. The “neointima/media (N/M) ratio” value (C57BL/6 mice; DM 40 mg/kg/day 4 weeks) was 0.5±0.2, the “cell viability (MTT)” value (THP-1 cells; 0.01, 0.1, or 1 μM DM) was “no significant changes of the cell viability” and the macrophage superoxide production ([1]; DM 0.01 μM pretreatment, LPS alone 612,000±105,000) was 341,000±82,000 RLU/15 min/mL. The macrophage superoxide production ([1]; DM 0.1 μM pretreatment, LPS alone 612,000±105,000) was 303,000±109,000 RLU/15 min/mL, the macrophage superoxide production ([1]; DM 1 μM pretreatment, LPS alone 612,000±105,000) was 257,000±45,000 RLU/15 min/mL and the microglia activation (microglia; 1 μM DM, Liu et al. 2003) was “could inhibit microglia activation”. The “aortic atherosclerotic lesion area” value (apoE-deficient mice; DM 5 mg/kg/day 10 weeks, P=NS, controls 16.9±4.3) was 14.1±5.7%, the “aortic atherosclerotic lesion area” value (apoE-deficient mice; DM 10 mg/kg/day 10 weeks, controls 16.9±4.3) was 8.2±3.8% and the “aortic atherosclerotic lesion area” value (apoE-deficient mice; DM 20 mg/kg/day 10 weeks, controls 16.9±4.3) was 5.0±2.0%. The “aortic atherosclerotic lesion area” value (apoE-deficient mice; DM 40 mg/kg/day 10 weeks, controls 16.9±4.3) was 4.6±3.6%, the “total cholesterol, triglyceride, LDL, and HDL levels” value ([2]; DM treatment for 10 weeks vs controls) was “no significant differences” and the IL-6 in medium ([3]; DM 0.01 μM pretreatment, LPS alone 9.53±1.95) was 6.22 ± 2.46 ng/mL. It also gave an IL-6 in medium ([3]; DM 0.1 μM pretreatment, LPS alone 9.53±1.95) of 6.21 ± 1.89 ng/mL, an IL-6 in medium ([3]; DM 1 μM pretreatment, LPS alone 9.53±1.95) of 5.36 ± 1.76 ng/mL and an IL-6 in medium ([4]; DM 0.01 μM pretreatment, oxLDL alone 2.46±1.20) of 1.40 ± 0.58 ng/mL. For the same molecule, the IL-6 in medium ([4]; DM 0.1 μM pretreatment, oxLDL alone 2.46±1.20) was 1.28 ± 0.64 ng/mL and the IL-6 in medium ([4]; DM 1 μM pretreatment, oxLDL alone 2.46±1.20) was 1.33 ± 0.67 ng/mL.

`C=CCN1CC[C@]23c4c5ccc(O)c4O[C@H]2C(=O)CC[C@@]3(O)[C@H]1C5` [Naloxone, 17-allyl-4,5α-epoxy-3,14-dihydroxymorphinan-6-one] showed a lumen area (C57BL/6 mice; 10 mg/kg/day) of 24475±5261 μm^2, a neointima area (C57BL/6 mice; 10 mg/kg/day) of 20052±4372 μm^2 and a lumen area (C57BL/6 mice; 20 mg/kg/day) of 26452±9024 μm^2. For the same molecule, the neointima area (C57BL/6 mice; 20 mg/kg/day) was 14233±4040 μm^2, the lumen area (C57BL/6 mice; 25 mg/kg/day) was 29650±5643 μm^2 and the neointima area (C57BL/6 mice; 25 mg/kg/day) was 13865±3494 μm^2. For the same molecule, the “Media area regression coefficient (naloxone)” value (C57BL/6 mice; Naloxone 10 mg/kg/day) was 2950, the “Neointima area regression coefficient (naloxone)” value (C57BL/6 mice; Naloxone 10 mg/kg/day) was −13951 and the “Total area regression coefficient (naloxone)” value (C57BL/6 mice; Naloxone 10 mg/kg/day) was −11000. For the same molecule, the “Lumen area regression coefficient (naloxone)” value (C57BL/6 mice; Naloxone 10 mg/kg/day, Area = B1 + B2 (Naloxone) + B3 (Distance (mm))) was 12016, the “Lumen area regression coefficient (naloxone)” value (C57BL/6 mice; Naloxone 20 mg/kg/day) was 14033 and the “Media area regression coefficient (naloxone)” value (C57BL/6 mice; Naloxone 20 mg/kg/day) was 10001. The “Neointima area regression coefficient (naloxone)” value (C57BL/6 mice; Naloxone 20 mg/kg/day) was −19584, the “Total area regression coefficient (naloxone)” value (C57BL/6 mice; Naloxone 20 mg/kg/day) was −9582 and the “Lumen area regression coefficient (naloxone)” value (C57BL/6 mice; Naloxone 25 mg/kg/day) was 16993. For the same molecule, the “Media area regression coefficient (naloxone)” value (C57BL/6 mice; Naloxone 25 mg/kg/day) was 8112, the “Neointima area regression coefficient (naloxone)” value (C57BL/6 mice; Naloxone 25 mg/kg/day) was −20380 and the “Total area regression coefficient (naloxone)” value (C57BL/6 mice; Naloxone 25 mg/kg/day) was −12267. The “influence of naloxone treatment in regression model of carotid remodeling” value (C57BL/6 mice; multiple regression, independent of the distance to ligation) was “had a statistically significant influence on the lumen, neointima, and total vascular areas”, the “cell viability (MTT)” value (THP-1 cells; 0.01, 0.1, or 1 μM naloxone) was “no significant changes of the cell viability” and the macrophage superoxide production ([1]; 0.1 μM pretreatment, LPS alone 817,000±90,000) was 364,000±202,000 RLU/10 min/mL. For the same molecule, the macrophage superoxide production ([1]; 1 μM pretreatment, LPS alone 817,000±90,000) was 362,000±24,000 RLU/10 min/mL, the “neuron protection / microglia activation” value (microglia; 1 μM naloxone, Liu et al. 2000) was “could protect neurons through inhibition of microglia activation” and the “aortic atherosclerotic lesion area” value (apoE-deficient mice; 10 mg/kg/day i.p. 10 weeks, PBS 12.9±6.1) was 5.2±3.8%. The “aortic atherosclerotic lesion area” value (apoE-deficient mice; 20 mg/kg/day i.p. 10 weeks, PBS 12.9±6.1) was 3.4±1.4%, the “aortic atherosclerotic lesion area” value (apoE-deficient mice; 25 mg/kg/day i.p. 10 weeks, PBS 12.9±6.1) was 1.8±1.2% and the “total cholesterol, triglyceride, LDL, and HDL levels” value ([2]; naloxone 10, 20, 25 mg/kg/day i.p. 10 weeks vs PBS) was “no significant differences”. The IL-6 in medium ([3]; 0.01 μM pretreatment, LPS alone 5.02±0.14) was 3.74 ± 0.31 ng/mL, the IL-6 in medium ([3]; 0.1 μM pretreatment, LPS alone 5.02±0.14) was 3.28 ± 0.14 ng/mL and the IL-6 in medium ([3]; 1 μM pretreatment, LPS alone 5.02±0.14) was 3.44 ± 0.48 ng/mL. It also gave an IL-6 in medium ([4]; 0.01 μM pretreatment, oxLDL alone 1.51±0.08) of 1.05 ± 0.03 ng/mL, an IL-6 in medium ([4]; 0.1 μM pretreatment, oxLDL alone 1.51±0.08) of 1.01 ± 0.01 ng/mL and an IL-6 in medium ([4]; 1 μM pretreatment, oxLDL alone 1.51±0.08) of 1.05 ± 0.07 ng/mL.
